Results reported in patent publication US9862724B2, “Pyrazolo[1,5-a]pyrimidine-based compounds, compositions comprising them, and methods of their use” (LEXICON PHARMACEUTICALS, INC., priority 2013, dated 2018).
Read-outs that look alike come from different tables or passages of the source.

Columns and labels:
AAK1 = molecular target: T1, AAK1 (Homo sapiens, UniProt Q2M2I8); test: HEK281 cell-based assay (phospho-mu2 Western blot in transfected HEK293F cells); conditions: HEK293F cells transfected with human AAK1 and AP2M1, 3 hours, read-out: CBA IC50
T1 construct: expressed in transfected cells; host or cells: HEK293F
T1 sequence (Q2M2I8 1-863 isoform Q2M2I8-2): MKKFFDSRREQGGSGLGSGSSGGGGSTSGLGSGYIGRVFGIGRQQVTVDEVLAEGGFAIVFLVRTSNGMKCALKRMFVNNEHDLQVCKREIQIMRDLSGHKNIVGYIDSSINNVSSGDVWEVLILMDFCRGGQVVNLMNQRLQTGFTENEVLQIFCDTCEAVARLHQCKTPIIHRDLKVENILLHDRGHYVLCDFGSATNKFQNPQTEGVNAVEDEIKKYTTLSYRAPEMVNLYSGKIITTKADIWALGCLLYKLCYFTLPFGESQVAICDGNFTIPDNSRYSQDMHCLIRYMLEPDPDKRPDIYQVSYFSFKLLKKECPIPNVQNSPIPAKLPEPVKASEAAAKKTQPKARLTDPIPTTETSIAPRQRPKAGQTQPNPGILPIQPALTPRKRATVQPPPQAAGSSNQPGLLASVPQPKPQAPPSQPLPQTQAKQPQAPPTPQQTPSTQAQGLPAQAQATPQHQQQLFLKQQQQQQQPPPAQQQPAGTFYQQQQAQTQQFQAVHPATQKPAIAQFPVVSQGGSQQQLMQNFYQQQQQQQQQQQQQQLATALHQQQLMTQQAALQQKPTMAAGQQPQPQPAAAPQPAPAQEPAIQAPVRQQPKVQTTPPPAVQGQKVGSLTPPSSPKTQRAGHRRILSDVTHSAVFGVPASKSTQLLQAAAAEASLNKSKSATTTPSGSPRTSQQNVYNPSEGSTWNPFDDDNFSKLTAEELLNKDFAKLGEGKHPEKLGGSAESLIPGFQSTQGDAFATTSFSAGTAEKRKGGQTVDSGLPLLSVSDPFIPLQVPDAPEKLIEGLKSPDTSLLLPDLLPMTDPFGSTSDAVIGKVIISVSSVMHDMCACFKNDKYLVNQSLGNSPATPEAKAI
Description: HEK293F cells were cultured in media containing DMEM (Gibco, cat. #11965), 10% FBS (SAFC Biosciences, cat. #12103C), 1×GPS (glutamine, penicillin and streptomycin). On day one, cells were plated on a 10 cm dish so that they are ˜80% confluent at time of transfection. Roughly 12 million cells were in a 10 cm dish at time of transfection. On day two, each dish was transfected with 48 ug DNA and 144 ul Lipofectamine 2000 (Invitrogen, cat.#11668-019). The DNA was comprised of a mixture (per 10 cm dish) containing 3 ug AAK1/HA/pIRES (full length human, NCBI accession no. NP_055726.2), 45 μg Flag/AP2MI/pcDNA (full length human), and 1.5 ml OPTI-MEM. The Lipofectamine 2000 is made up of a mixture (per 10 cm dish) containing 144 μl Lipofectamine 2000 and 1.5 ml OPTI-MEM. Each mixture was transferred to individual 15 ml tubes and incubated at room temperature for 5 minutes, and then the two mixes were combined and incubated at room temperature for 20 minutes. Growth media was then aspirated from each 10 cm plate and replaced with 10 ml of DMEM+10% FBS (no GPS). Finally, 3 ml DNA/Lipofectamine mix was added to each 10 cm dish and mix gently followed by incubate of plate overnight at 37° C. and 5% CO2.
On day three, compounds were diluted in 100% DMSO at 1000× final concentration, followed by 3-fold serial dilutions for a total of 5 concentrations tested. Four compounds were tested per 10 cm dish. One ul of each compound dilution was then pipetted into a deep-well, 96-well plate, followed by addition of 500 μl DMEM+0.5% FBS into each well for a 2× final concentration of each compound. Cells were resuspended in a 10 cm dish by simple pipetting (HEK293 cells come off the plate that easy at this point) and then transferred to a 50 ml conical tube and pelleted by centrifugation at 1000 rpm for 5 min. Cell pellets were then resuspended in 2.75 ml DMEM+0.5% FBS per 10 cm dish and 100 μl of cell suspension transferred into each well of 96-well TC plate. Finally, 100 μl of 2× compound diluted in DMEM+0.5% FBS was then added into wells containing cell suspension for a 1× final concentration. Plates were then incubated at 37° C. and 5% CO2 for 3 hours followed by transferring of cell suspensions from each well into 12-tube PCR strips. The PCR strips were spun in a tip rack at 1000 rpm for 5 minutes to pellet cells and media was then removed by pipetting without disturbing the cell pellet.
To prepare for Western Blot analysis, cell pellets were resuspend in 40 ul 1×LDS-PAGE sample buffer (Invitrogen, cat.# NP0008)+2× Halt phophatase and protease inhibitor cocktail (Thermo Scientific, cat.#1861284), followed by sonicating each with microtip sonicator set at 5 for 8-10 seconds. Five ul of 10× NuPage Sample Reducing Agent (with […]) was to each sample followed by heat denaturing at 70 C for 10 min on PCR machine. A total of 10 μl per sample was loaded into each lane of a 4-20% Tris-Glycine Criterion 26-well gel (Biorad, cat.#345-0034) for the phospho-mu2 blot and 10 μl per lane in a 4-12% Bis-Tris (+MES buffer) NuPAGE 26-well gel (Invitrogen, cat.# WG1403BX10) for the mu2 blot. For controls, 2 ng of phospho-mu2 or 20 ng mu2/Flag proteins were loaded in the last well of each gel. After SDS-PAGE, samples on each gel were transferred to PVDF membrane using an iBlot and membranes were blocked for one hour in TBST+5% milk, followed by wash 3× for 5-10 min with TBST. Criterion gels were probed with rabbit anti-phospho-mu2 (1:5000; a rabbit polyclonal antibody produced by New England Peptide and affinity purified at Lexicon) in TBST+5% BSA, whereas, NuPAGE gels were probed with mouse anti-Flag (1:500; Sigma, cat.# F1804) in TBST+5% milk, and these primary antibodies were incubated overnight at 4° C. on a rocker. […]

[1] = molecular target: T2, AAK1 (full-length human protein) (Homo sapiens, UniProt Q2M2I8); test: P81 filter plate assay; type: biochemical; conditions: 0.2 nM 2x AAK1, Mu2 substrate, 33P-ATP
T2 construct: NP_055726.2
T2 sequence (Q2M2I8 1-863 isoform Q2M2I8-2): as above
Description: Compounds were serially diluted into a Labcyte LDV plate (Labcyte, cat# LP-0200) using a Mutiprobe (PerkinElmer) and Biomek FX (Beckman Coulter) so that the highest compound concentration was at 96 μM. Compounds were then pinged (75 nL per well) into a Greiner 384-well reaction plate (Greiner, #781076) using an ECHO 550 Liquid Handler (Labcyte). A total of 12 μl reaction buffer (IMAP buffer containing Tween and DTT, from Molecular Devices) was then added to each well of columns 1 and 13 for the negative controls and 12 μl of 2×AAK1 (0.2 nM full-length human protein, NCBI accession no. NP_055726.2) was added to the remaining wells. Enzyme was then pre-incubated with compound for 10 minutes at RT. Reactions were initiated upon Minitrak (PerkinElmer) addition of 12 μl substrate mix containing 2×Mu2 (0.2 μM, full length human protein), 2× cold ATP (2 μM), and 1.3 μCi of hot ^33P-ATP. Reactions proceeded for one hour at RT. Meanwhile, Millipore 384-well P81 filter plates (Millipore, catalog # MZPHN0W10) were placed on a plate washer (Zoom ZW, from Titertek) and pre-wet with 50 μl […] phosphoric acid. Kinase reactions were then stopped upon addition of 24 μl of 2% phosphoric acid to each well and the Minitrak was then used to transfer 40 μl from each well into the pre-wet Millipore 384-well P81 filter plates. Reaction mixtures were incubated for 10 minutes at room temperature in the P81 plates, followed by washing five times with 100 μl/well of 1% phosphoric acid using the Zoom filter washer. The bottom of each filter plate was sealed followed by addition of 20 μl Microscint 40 to each well, sealing the top of the plates with Flashplate cover, and then waiting one hour until reading on the TopCount (PerkinElmer).

Row | IC50 (AAK1; class symbols) [nM] | IC50 ([1]; class symbols) [nM] | IC50 (AAK1; numeric bounds) [nM] | IC50 ([1]; numeric bounds) [nM] | Compound
1 | ≤ 100 | – | – | – | CC(C)OC(=O)c1ccc(-c2ccn3ncc(I)c3n2)cc1 [isopropyl 4-(3-iodopyrazolo[1,5-a]pyrimidin-5-yl)benzoate]
2 | ≤ 100 | – | – | – | COc1ncccc1-c1cnn2ccc(CCCCN(C)C(=O)OC(C)C)nc12 [isopropyl (4-(3-(2-methoxypyridin-3-yl)pyrazolo[1,5-a]pyrimidin-5-yl)butyl)(methyl)carbamate]
3 | – | – | > 300 | – | CC(C)OC(=O)N(C)CCCCc1ccn2ncc(Br)c2n1 [isopropyl (4-(3-bromopyrazolo[1,5-a]pyrimidin-5-yl)butyl)(methyl)carbamate]
4 | ≤ 1000 | – | – | – | CC(C)OC(=O)c1ccc(-c2ccn3nccc3n2)cc1 [isopropyl 4-(pyrazolo[1,5-a]pyrimidin-5-yl)benzoate]
5 | ≤ 100 | – | – | – | COc1ncccc1-c1cnn2ccc(CCCN(C)C(=O)OC(C)C)nc12 [isopropyl (3-(3-(2-methoxypyridin-3-yl)pyrazolo[1,5-a]pyrimidin-5-yl)propyl)(methyl)carbamate]
6 | – | – | > 300 | > 100 | CC(C)OC(=O)N(C)CCCc1ccn2nccc2n1 [isopropyl methyl(3-(pyrazolo[1,5-a]pyrimidin-5-yl)propyl)carbamate]
7 | ≤ 10 | – | – | – | COc1ncccc1-c1cnn2ccc(-c3ccc(C(=O)OC(C)C)cc3)nc12 [isopropyl 4-(3-(2-methoxypyridin-3-yl)pyrazolo[1,5-a]pyrimidin-5-yl)benzoate]
8 | ≤ 100 | – | – | – | CC(C)OC(=O)c1ccc(-c2ccn3ncc(Br)c3n2)cc1 [isopropyl 4-(3-bromopyrazolo[1,5-a]pyrimidin-5-yl)benzoate]
9 | ≤ 100 | – | – | – | CC(C)(C)OC(=O)N1CC=C(c2ccn3nccc3n2)CC1 [tert-butyl 4-(pyrazolo[1,5-a]pyrimidin-5-yl)-5,6-dihydropyridine-1(2H)-carboxylate]

Second part, the molecule before the results:

Row | Compound | IC50 (AAK1; class symbols) [nM] | IC50 ([1]; class symbols) [nM] | IC50 (AAK1; numeric bounds) [nM] | IC50 ([1]; numeric bounds) [nM]
10 | COc1ncccc1-c1cnn2ccc(-c3ccn(CCC(C)(C)C)c(=O)c3)nc12 [1-(3,3-Dimethylbutyl)-4-(3-(2-methoxypyridin-3-yl)pyrazolo[1,5-a]pyrimidin-5-yl)pyridin-2(1H)-one] | ≤ 10 | ≤ 10 | – | –
11 | CC(C)CCn1ccc(-c2ccn3nccc3n2)cc1=O [1-isopentyl-4-(pyrazolo[1,5-a]pyrimidin-5-yl)pyridin-2(1H)-one] | ≤ 100 | – | – | –
12 | COc1ncccc1-c1cnn2ccc(-c3ccn(CCOC(C)C)c(=O)c3)nc12 [1-(2-isopropoxyethyl)-4-(3-(2-methoxypyridin-3-yl)pyrazolo[1,5-a]pyrimidin-5-yl)pyridin-2(1H)-one] | ≤ 10 | ≤ 100 | – | –
13 | COc1ncc(F)cc1-c1cnn2ccc(-c3ccn(CCC(C)(C)C)c(=O)c3)nc12 [1-(3,3-dimethylbutyl)-4-(3-(5-fluoro-2-methoxypyridin-3-yl)pyrazolo[1,5-a]pyrimidin-5-yl)pyridin-2(1H)-one] | ≤ 10 | ≤ 10 | – | –
14 | CC(C)CCn1ccc(-c2ccn3ncc(I)c3n2)cc1=O [4-(3-iodopyrazolo[1,5-a]pyrimidin-5-yl)-1-isopentylpyridin-2(1H)-one] | ≤ 10 | ≤ 10 | – | –
15 | CCOc1ncccc1-c1cnn2ccc(-c3ccn(CCC(C)C)c(=O)c3)nc12 [4-(3-(2-ethoxypyridin-3-yl)pyrazolo[1,5-a]pyrimidin-5-yl)-1-isopentylpyridin-2(1H)-one] | ≤ 10 | ≤ 10 | – | –
16 | COc1ncccc1-c1cnn2ccc(-c3ccnc(OC(C)C)c3)nc12 [5-(2-isopropoxypyridin-4-yl)-3-(2-methoxypyridin-3-yl)pyrazolo[1,5-a]pyrimidine] | ≤ 10 | ≤ 100 | – | –
17 | COCCn1ccc(-c2ccn3ncc(-c4cccnc4OC)c3n2)cc1=O [1-(2-methoxyethyl)-4-(3-(2-methoxypyridin-3-yl)pyrazolo[1,5-a]pyrimidin-5-yl)pyridin-2(1H)-one] | ≤ 10 | ≤ 10 | – | –
18 | COc1ccc(F)cc1-c1cnn2ccc(-c3ccn(CCC(F)(F)F)c(=O)c3)nc12 [4-(3-(5-fluoro-2-methoxyphenyl)pyrazolo[1,5-a]pyrimidin-5-yl)-1-(3,3,3-trifluoropropyl)pyridin-2(1H)-one] | ≤ 10 | ≤ 100 | – | –
19 | CC(C)CCn1ccc(-c2ccn3ncc(Cl)c3n2)c(Cl)c1=O [3-chloro-4-(3-chloropyrazolo[1,5-a]pyrimidin-5-yl)-1-isopentylpyridin-2(1H)-one] | ≤ 100 | – | – | –
20 | COc1ncccc1-c1cnn2ccc(-c3ccn(CCC(F)(F)F)c(=O)c3)nc12 [4-(3-(2-methoxypyridin-3-yl)pyrazolo[1,5-a]pyrimidin-5-yl)-1-(3,3,3-trifluoropropyl)pyridin-2(1H)-one] | ≤ 10 | ≤ 10 | – | –
21 | CC(C)CCn1ccc(-c2ccn3ncc(Br)c3n2)cc1=O [4-(3-bromopyrazolo[1,5-a]pyrimidin-5-yl)-1-isopentylpyridin-2(1H)-one] | ≤ 10 | ≤ 10 | – | –
22 | COc1nc(C)ccc1-c1cnn2ccc(-c3ccn(CCC(F)(F)F)c(=O)c3)nc12 [4-(3-(2-methoxy-6-methylpyridin-3-yl)pyrazolo[1,5-a]pyrimidin-5-yl)-1-(3,3,3-trifluoropropyl)pyridin-2(1H)-one] | ≤ 10 | ≤ 100 | – | –
23 | CC(C)CCn1ccc(-c2ccn3ncc(C(F)(F)F)c3n2)cc1=O [1-isopentyl-4-(3-(trifluoromethyl)pyrazolo[1,5-a]pyrimidin-5-yl)pyridin-2(1H)-one] | ≤ 100 | – | – | –
24 | CC(C)(C)CCn1ccc(-c2ccn3ncc(Br)c3n2)cc1=O [4-(3-bromopyrazolo[1,5-a]pyrimidin-5-yl)-1-(3,3-dimethylbutyl)pyridin-2(1H)-one] | ≤ 100 | – | – | –
25 | CC(C)Oc1cc(-c2ccn3ncc(CO)c3n2)ccn1 [(5-(2-isopropoxypyridin-4-yl)pyrazolo[1,5-a]pyrimidin-3-yl)methanol] | – | – | > 300 | –
26 | C1=C(c2ccn3nccc3n2)CCNC1 [5-(1,2,3,6-tetrahydropyridin-4-yl)pyrazolo[1,5-a]pyrimidine] | – | – | > 300 | –
